The record followed here is US11207315B2, “Emetine compounds for treatment and prevention of flavivirus infection” (FLORIDA STATE UNIVERSITY RESEARCH FOUNDATION, INC., priority 2017, dated 2021).

Counter-ions that a name gives are not always drawn.

The term IC50 denotes the midpoint of a concentration-inhibition curve. Read a low IC50 as greater potency in that assay.

The subject of one data set is HEK293 cells. The data set is described as follows: Toxicity IC50 (cell-killing activity) in the compound screen. Format: cell-based, Human.
Data set [1] relates to ZIKV (three strains). The data set is described as follows: infectious ZIKV production from SNB-19 cells, focus-forming unit assay on Vero cells. Format: cell-based. As to conditions: Zika virus, for each of three ZIKV strains. The procedure:
FIGS. 1A-B. Antiviral activity of emetine against ZIKV infection. ZIKV production from human glioblastoma SNB-19 cells treated with increasing concentrations of emetine. 24 hours post-infection, supernatants from SNB-19 cells were titrated onto naïve Vero cells plated in a monolayer in 96-well plates for infectious focus-forming unit assay as previously described and focus forming units quantified.
(§1) IC50 for each strain is ≤˜10 nM.
Cell line cultures. The glioblastoma SNB-19 cell line (part of the National Cancer Institute 60 human tumor cell line) was a gift from Dr. David Meckes (Florida State University, Tallahassee, Fla.). SNB-19 cells were maintained at 37° C. in 5% CO2 in […], 1× penicillin/streptomycin, and 10% fetal bovine serum (Invitrogen). The Aedes albopictus C6/36 cell line (ATCC) was maintained at 28° C. in 5% CO2.
Preparation of ZIKV and cell infection. The MR766-ZIKV stock with the titer of 1×10^5 Tissue Culture Infective Dose (TCID)/ml in the form of culture fluid from an infected rhesus Macaca cell line LLC-MK2, was originally obtained from ZeptoMetrix (Buffalo, N.Y.). The FSS13025-ZIKV strain was obtained from Drs. Robert Tesh and Pei-Yong Shi (University of Texas Medical Branch, Galveston, Tex.). […] C6/36-amplified ZIKV titer was determined by infecting Vero cells for 48 hours with a methyl-cellulose overlay and analyzed for focus-forming units per mL (FFU/ml). […]

Data set [2] relates to ZIKV (three strains). The data set is described as follows: immunofluorescence staining and quantification of ZIKV positive SNB-19 cells. Format: cell-based, Zika virus. As to conditions: one of three ZIKV strains; emetine at 0.01, 0.1, or 1 μM. On the procedure:
Immunofluorescence (IF) staining (FIG. 2A) and quantification (FIG. 2B) of ZIKV positive SNB-19 cells following infection with one of three ZIKV strains and treatment with emetine at 0.01, 0.1, or 1 μM. Emetine is effective against all three ZIKV strains tested.
Preparation of ZIKV and cell infection. The MR766-ZIKV stock with the titer of 1×10^5 Tissue Culture Infective Dose (TCID)/ml in the form of culture fluid from an infected rhesus Macaca cell line LLC-MK2, was originally obtained from ZeptoMetrix (Buffalo, N.Y.). The FSS13025-ZIKV strain was obtained from Drs. Robert Tesh and Pei-Yong Shi (University of Texas Medical Branch, Galveston, Tex.). The PRVABC59 strain was obtained from ATCC (Manassas, Va.). Original viral stocks were then amplified in Aedes albopictus clone C6/36 cells. Briefly, C6/36 cells were inoculated with viral inoculum for one hour at 28° C. in low volume of media (3 ml per T-75 flask), with rocking every 15 minutes, before addition of 17 ml media. Viral inoculated cells were incubated at 28° C. for 6-7 days before harvesting of supernatant. C6/36-amplified ZIKV titer was determined by infecting Vero cells for 48 hours with a methyl-cellulose overlay and analyzed for focus-forming units per mL (FFU/ml). In mock infections, an equal volume of spent uninfected C6/36 culture medium was used. […]

The subject of another data set is PRVABC59-ZIKV. The data set is described as follows: time of addition: drug added 1 hour prior to or 4 hours post infection, NS1 Western blot and ZIKV-ENV IF staining. As to conditions: added before or after infection; 1 μM. It is filed as cell-based, Zika virus. On the procedure: as §1
Drug (emetine) was added at 1 μM either 1-hour prior to infection with PRVABC59-ZIKV, or 4-hours post infection with PRVABC59-ZIKV.
FIGS. 6A-B show IF staining of ZIKV-ENV Vero cells after a 24-hour infection. Drug was added at 1 μM either 1-hour prior to infection with PRVABC59-ZIKV, or 4-hours post infection with PRVABC59-ZIKV.
Immunocytochemistry. Cells were fixed with 4% paraformaldehyde (Sigma) for 15 min at room temperature. Samples were permeabilized and blocked with 0.25% Triton X-100 (Sigma) and 10% donkey or goat serum in PBS for 20 min as previously described (Chiang et al., 2011; [41]; Yoon et al., 2014). Samples were then incubated with primary antibodies at 4° C. overnight, followed by multiple PBST washes and incubation with secondary antibodies for 1 h at room temperature. Slides were mounted using VECTASHIELD with DAPI (Vectorlabs, Burlingame, Calif.). The following primary antibodies were used: anti-flavivirus group antigen (clone D1-4G2-4-15; mouse; 1:500; Millipore), and anti-cleaved caspase-3 ([…]; Rabbit; 1:500; Cell Signaling Technology). Antibodies were prepared in PBS containing 0.25% Triton X-100 and 10% donkey serum. Images were taken by Zeiss LSM 700 and 880 confocal microscopes, Olympus BX61, or Zeiss Axiovert 200M microscope.
Western blot. […]
On the technique in general: In western blotting, separated proteins are transferred to a membrane and probed.

Data set [3] concerns ZIKV. The data set is described as follows: serum viral load (ZIKV NS1 ELISA) in ZIKV-challenged mice. The note with it: for decrease in serum viral load: serum at day 3; for reduction in serum viral load: until day 3. It is filed as in vivo, Ifnar1−/− mice. On the procedure: (§2) FIG. 8. Zika virus load estimation in mouse serum following emetine treatment. Serum was separated. NS1 protein was estimated using ZIKV-NS1 ELISA kit (Biofront, Tallahassee, Fla.) as per the manufacturer's protocol. Briefly, 5 μl of the serum was lysed with equal volume of lysis buffer for 30 min at 37° C. A 1:900 dilution of the serum was done using sample dilution buffer and added to ELISA plates. Reactions were quantified using HRP conjugated antibody and TMB. Absorbance was taken at 450 nm after adding the stop solution. Statistical analysis was done using the Mann-Whitney ANOVA. *p<0.05, **p<0.01, ***p<0.001.
as §2, with “9.” for “8.”, “treatment before and after Zika virus challenge.” for “treatment.”, “1:300” for “1:900”
NS1 ELISA. The anti-ZIKV NS1 ELISA (ZKV-NS1-EK) was obtained from BioFront Technologies (Tallahassee, Fla.) and used according to the manufacturer's protocol.
Ifnar1−/− mice (7-8 wk old, male and female, Jackson Lab) were dosed (i.p) with Emetine 1 mg/kg/day (n=6), 2 mg/kg/day (n=8) or saline (Vehicle control, n=8) starting at 24 hours prior to challenging with ZIKV (10^3, Focal forming unit (FFU)) on day 0. Drug was continued until day 6. At peak viremia (day 3), a blood sample was taken from the tail vein and serum was separated and stored at −70° C. till further analysis. The body weight were monitored twice daily until day 10. Mice reaching humane end points were euthanized. With emetine treatment, there was a 30% and 37% decrease in serum viral load with 1 mg/kg and 2 mg/kg treatment, respectively.
(§3) Ifnar1−/− mice (8 wk old, male and female) were dosed with Emetine 2 mg/kg/day i.p. starting at 24 hours prior (n=8) or 24 after (n=7) the challenging with ZIKV on day 0. Drug was continued till day 3. Mice were euthanized, and blood and liver tissue were collected.
A general note: An ELISA detects its analyte on a solid surface through an enzyme-linked reagent.

The subject of data set [4] is ZIKV. Put plainly: liver viral load (NS1 gene expression by real time PCR) in ZIKV-challenged mice. It is filed as in vivo, Ifnar1−/− mice. As to conditions: until day 3. On the procedure:
FIG. 10. Zika virus load estimation in mouse liver following emetine treatment before and after Zika virus challenge. From 30 mg of liver tissue stored in RNAlater (Qiagen), total RNA was isolated using RNeasy mini kit (Qiagen) and converted to cDNA. Viral NS1 gene expression was estimated by real time PC Relative expression of the NS1 gene was calculated using ZIKV-NS1 specific primers and GAPDH primers. Statistical analysis was done using the Mann-Whitney ANOVA. *p<0.05, **p<0.01, ***p<0.001.
as §3
Background: Real-time PCR tracks product formation cycle by cycle.

The mark [5] stands for this setting: 2 mg/kg i.p. starting 24 hours after ZIKV challenge.
The mark [6] stands for this setting: 2 mg/kg i.p. starting 24 hours prior to ZIKV challenge.

Turning to `CC[C@H]1CN2CCc3cc(OC)c(OC)cc3[C@@H]2C[C@@H]1C[C@H]1NCCc2cc(OC)c(OC)cc21` [Emetine, emetine], the “Tox IC50” value in the data set on HEK293 cells is reported as “No”. In the data set on ZIKV (three strains) [1], this compound displayed a half-inhibitory concentration (IC50) not above 0.01 µM. Further, the “ZIKV positive SNB-19 cells (IF)” value with ZIKV (three strains) [2] was “reduces ZIKV infection in a dosage dependent manner”. For the same compound, the “effect on ZIKV infection by time of addition” value in the data set with PRVABC59-ZIKV is reported as “effective against ZIKV infection when added before or after infection”. The “decrease in serum viral load” value in the data set with ZIKV [3] (1 mg/kg/day i.p. from 24 hours prior to challenge) is 30%; in the data set on ZIKV [3] (2 mg/kg/day i.p. from 24 hours prior to challenge), 37%.
For `CC[C@H]1CN2CCc3cc(OC)c(OC)cc3[C@@H]2C[C@@H]1C[C@H]1NCCc2cc(OC)c(OC)cc21` [emetine dihydrochloride], the “reduction in serum viral load” value in the data set with ZIKV [3] (setting [5]) was found to be 32%; with ZIKV [3] (setting [6]), 55%. Also, the “reduction in liver viral load” value was determined as 35% in the data set with ZIKV [4] (setting [5]) and 42% with ZIKV [4] (setting [6]).
